Earlier results, collected in patent US20230371513A1, “PHOTOSTABLE COMPOSITION AND METHOD OF REDUCING OR CONTROLLING WEED POPULATION APPLYING SAID COMPOSITION” (UPL DO BRASIL INDUSTRIA E COMERCIO DE INSUMOS AGROPECUARIOS …, priority 2020, published 2023).

Settings: buffer

## Cc1nn(-c2cc(NS(C)(=O)=O)c(Cl)cc2Cl)c(=O)n1C(F)F [sulfentrazone]
  half-life, direct photolysis: 1 to 12 h
